In US9757332B2, “Gel-like composition having high ubiquinol content” (UHA Mikakuto Co., Ltd., priority 2013, dated 2017):

Experiment: Observation of particles under optical microscope (Test Example I-4)
Type: physicochemical
Conditions: magnification of 400 times

SMILES: COc1c(O)c(C)c(C/C=C(\C)CC/C=C(\C)CC/C=C(\C)CC/C=C(\C)CC/C=C(\C)CC/C=C(\C)CC/C=C(\C)CC/C=C(\C)CC/C=C(\C)CCC=C(C)C)c(O)c1OC [ubiquinol powder (Kaneka QH), ubiquinol]
- crystals observed under optical microscope: irregular crystal structure
